US20180193412A1, “Method of In Vivo Treatment” (Hexima Limited, priority 2015, published 2018)

How the values were obtained:
C. albicans = experiment: Inhibition of growth of Candida albicans, Example 2 antifungal assay; format: cell-based; settings: Table 4; ½ strength PDB, 30° C., A595
Protocol: (§1) The inhibitory effects of the plant defensins on the growth of Candida albicans, Aspergillus fumigatus (obtained from the National Mycology Reference Centre, South Australia Pathology at the Women's and Children's Hospital, Adelaide, Australia), C. glabrata, C. tropicalis, A. flavus, A. niger, A. fumigants, Cryptococcus neoformans and C. gattii (obtained from Dee Carter, University of Sydney, New South Wales, Australia) are measured essentially as described by Broekaert et al. (1990) FEMS Microbiol Lett 69:55-59.
(§2) Spores of A. flavus. A. niger and A. fumigatus are isolated from sporulating fungus growing on ½ strength Sabouraud dextrose agar. Spores were removed from the plates by the addition of ½ strength potato dextrose broth (PDB). C. albicans, C. glabrata, C. tropicalis, C. neoformans and C. gattii cells are grown in Yeast Peptone Broth (YPD) for 16 h. Spore and cell concentrations are measured using a hemocytometer.
(§3) Antifungal assays are conducted in 96 well microtitre plates essentially as herein described. Wells are loaded with 20 μL of filter sterilized (0.22 μm syringe filter, Millipore) defensin (10× stock for each final concentration) or water and 80 μL of 5×10^4 spores/mL (A. flavus, A. niger, A. fumigatus), 5,000 cells/mL (C. albicans, C. glabrata, C. tropicalis) or 1×10^6 cells/mL (C. neoformans, C. gattii) in ½ strength PDB. The plates are incubated at 30° C. Fungal growth is assayed by measuring optical density at 595 nm (A595) using a microtitre plate reader (SpectraMax Pro M2; Molecular Devices. Growth is allowed to proceed until the optical density (OD) of the fungus in the absence of any test defensin reached an OD of 0.2. Each test is performed in duplicate.

T. rubrum = experiment: Inhibition of growth of Trichophyton rubrum by plant defensins (microtitre A595 antifungal assay); format: cell-based; settings: ½ strength PDB, 30° C.
Protocol: (§4) The inhibitory effects of the plant defensins on the growth of Trichophyton rubrum, T. interdigitale, Microsporum fulvum and C. albicans (all obtained from the National Mycology Reference Centre, South Australia Pathology at the Women's and Children's Hospital, Adelaide, Australia) are measured essentially as described by Broekaert et al. (1990) FEMS Microbiol Lett 69:55-59.
as §2, with “T. rubrum, T. interdigitale” for “A. flavus. A. niger”, “M. fulvum” for “A. fumigatus”, “albicans” for “albicans, C. glabrata, C. tropicalis, C. neoformans and C. gattii”
as §3, with “Ξ m” for “μm”, “(T. rubrum, T. interdigitale, M. fulvum) or” for “(A. flavus, A. niger, A. fumigatus),”, “albicans)” for “albicans, C. glabrata, C. tropicalis) or 1×10^6 cells/mL (C. neoformans, C. gattii)”

A. flavus = experiment: Inhibition of growth of A. flavus, Example 2 antifungal assay; format: cell-based; settings: ½ strength PDB, 30° C., A595
Protocol: as §1, §2, §3

C. neoformans = experiment: Inhibition of growth of Cryptococcus neoformans, Example 2 antifungal assay; format: cell-based; settings: ½ strength PDB, 30° C., A595
Protocol: as §1, §2, §3

T. albicans = experiment: Inhibition of growth of C. albicans by plant defensins, Example 1 (microtitre A595 antifungal assay); format: cell-based; settings: Table 3; ½ strength PDB, 30° C., A595
Protocol: as §4
as §2, with “T. rubrum, T. interdigitale” for “A. flavus. A. niger”, “M. fulvum” for “A. fumigatus”, “albicans” for “albicans, C. glabrata, C. tropicalis, C. neoformans and C. gattii”
as §3, with “Ξ m” for “μm”, “(T. rubrum, T. interdigitale, M. fulvum) or” for “(A. flavus, A. niger, A. fumigatus),”, “albicans)” for “albicans, C. glabrata, C. tropicalis) or 1×10^6 cells/mL (C. neoformans, C. gattii)”

C. glabrata = experiment: Inhibition of growth of C. glabrata, Example 2 antifungal assay; format: cell-based; settings: ½ strength PDB, 30° C., A595
Protocol: as §1, §2, §3

[1] = test system: Trichophyton rubrum, T. interdigitale, Microsporum fulvum and C. albicans; experiment: Inhibition assays of Example 1, summary across the range of fungal pathogens; format: cell-based; settings: summary of Table 3, at the concentrations tested
Protocol: as §4
as §2, with “T. rubrum, T. interdigitale” for “A. flavus. A. niger”, “M. fulvum” for “A. fumigatus”, “albicans” for “albicans, C. glabrata, C. tropicalis, C. neoformans and C. gattii”
as §3, with “Ξ m” for “μm”, “(T. rubrum, T. interdigitale, M. fulvum) or” for “(A. flavus, A. niger, A. fumigatus),”, “albicans)” for “albicans, C. glabrata, C. tropicalis) or 1×10^6 cells/mL (C. neoformans, C. gattii)”

T. interdigitale = experiment: Inhibition of growth of T. interdigitale by plant defensins (microtitre A595 antifungal assay); format: cell-based, Trichophyton interdigitale; settings: ½ strength PDB, 30° C.
Protocol: as §4
as §2, with “T. rubrum, T. interdigitale” for “A. flavus. A. niger”, “M. fulvum” for “A. fumigatus”, “albicans” for “albicans, C. glabrata, C. tropicalis, C. neoformans and C. gattii”
as §3, with “Ξ m” for “μm”, “(T. rubrum, T. interdigitale, M. fulvum) or” for “(A. flavus, A. niger, A. fumigatus),”, “albicans)” for “albicans, C. glabrata, C. tropicalis) or 1×10^6 cells/mL (C. neoformans, C. gattii)”

A. fumigatus = experiment: Inhibition of growth of Aspergillus fumigatus, Example 2 antifungal assay; format: cell-based; settings: ½ strength PDB, 30° C., A595
Protocol: as §1, §2, §3

C. tropicalis = experiment: Inhibition of growth of C. tropicalis, Example 2 antifungal assay; format: cell-based; settings: ½ strength PDB, 30° C., A595
Protocol: as §1, §2, §3

A. niger = experiment: Inhibition of growth of A. niger, Example 2 antifungal assay; format: cell-based; settings: ½ strength PDB, 30° C., A595
Protocol: as §1, §2, §3

M. fulvum = experiment: Inhibition of growth of Microsporum fulvum by plant defensins (microtitre A595 antifungal assay); format: cell-based; settings: ½ strength PDB, 30° C., A595
Protocol: as §4
as §2, with “T. rubrum, T. interdigitale” for “A. flavus. A. niger”, “M. fulvum” for “A. fumigatus”, “albicans” for “albicans, C. glabrata, C. tropicalis, C. neoformans and C. gattii”
as §3, with “Ξ m” for “μm”, “(T. rubrum, T. interdigitale, M. fulvum) or” for “(A. flavus, A. niger, A. fumigatus),”, “albicans)” for “albicans, C. glabrata, C. tropicalis) or 1×10^6 cells/mL (C. neoformans, C. gattii)”

B. subtilis = experiment: Inhibition of the growth of Bacillus subtilis (OD595, 18 hours); format: cell-based; settings: for IC50: Mueller-Hinton Broth, 37° C., 18 hours, up to 20 μM, read-out: IC50 against B. subtilis
Protocol: (§5) A single E. coli or B. subtilis colony was used to inoculate 5 ml of Luria-Bertani media and grown overnight at 37° C. The following day, the optical density of the culture was measured and the bacteria diluted to an optical density at 600 nm (OD600) of 0.01 in Mueller-Hinton Broth. Diluted E. coli or B. subtilis were added to 96-well plates with defensins at concentrations of 20 μM, 10 μM, 5 μM, 2.5 μM, 1.25 μM, 0.625 μM or 0.3125 μM. Plates were read at OD595 to obtain time zero data points. Plates were incubated at 37° C. for 18 hours before reading again at OD595 to assess the amount of bacterial growth.

C. gattii = experiment: Inhibition of growth of C. gattii, Example 2 antifungal assay; format: cell-based; settings: ½ strength PDB, 30° C., A595
Protocol: as §1, §2, §3

E. coli = format: cell-based, Escherichia coli; settings: for IC50: Mueller-Hinton Broth, 37° C., 18 hours, up to 20 μM, read-out: IC50 against E. coli
Protocol: as §5

[2] = at the concentrations tested (0.3125-20 μM)

HXL004: Class I plant defensin from Nicotiana benthamiana (RTCESQSHRFKGLCFSRSNCASVCHTEGFNGGHCRGFRRRCFCTRHC; HXL004 Nicotiana benthamiana)
IC50 against C. albicans (C. albicans): 20 µg/mL | IC50 against T. rubrum (T. rubrum): 27.5 µg/mL | IC50 against A. flavus (A. flavus): >100 µg/mL | IC50 against C. neoformans (C. neoformans): 7 µg/mL | IC50 against T. albicans (T. albicans): 20 µg/mL | IC50 against C. glabrata (C. glabrata): 20 µg/mL | Activity across the range of fungal pathogens [1]: intermediate activity | IC50 against T. interdigitale (T. interdigitale): 19 µg/mL | IC50 against A. fumigatus (A. fumigatus): 20 µg/mL | IC50 against C. tropicalis (C. tropicalis): 5 µg/mL | IC50 against A. niger (A. niger): 45 µg/mL | IC50 against M. fulvum (M. fulvum): 12 µg/mL | IC50 (B. subtilis): 2.6 µM | IC50 against C. gattii (C. gattii): 20 µg/mL | IC50 (E. coli): 2.5 µM

HXL005: Class I plant defensin from Taraxcum kok-saghyz (KMCQTTSHAFSCVNDSGCSGSCEKQGFASGKCDGVRRRCTCYKKC; HXL005 Taraxcum kok-saghyz)
IC50 against C. albicans (C. albicans): 22 µg/mL | IC50 against T. rubrum (T. rubrum): 3 µg/mL | IC50 against A. flavus (A. flavus): 25 µg/mL | IC50 against C. neoformans (C. neoformans): 5 µg/mL | IC50 against T. albicans (T. albicans): 22 µg/mL | IC50 against C. glabrata (C. glabrata): 11 µg/mL | Activity across the range of fungal pathogens [1]: most effective | IC50 against T. interdigitale (T. interdigitale): 3.5 µg/mL | IC50 against A. fumigatus (A. fumigatus): 11 µg/mL | IC50 against C. tropicalis (C. tropicalis): 12 µg/mL | IC50 against A. niger (A. niger): 7.5 µg/mL | IC50 against M. fulvum (M. fulvum): 5 µg/mL | IC50 (B. subtilis): > 20 µM | Inhibition of growth of B. subtilis (B. subtilis; [2]): did not inhibit the growth | IC50 against C. gattii (C. gattii): 14 µg/mL | IC50 (E. coli): > 20 µM | Inhibition of growth of E. coli (E. coli; [2]): did not inhibit the growth

HXL012: Class I plant defensin from Amaranthus retroflexus (RMCKAPSKLFRGMCGIRDSNCDSVCRAEGMAAGDCHGLRRRCICSRPC; HXL012 Amaranthus retroflexus)
IC50 against C. albicans (C. albicans): 42 µg/mL | IC50 against T. rubrum (T. rubrum): 2 µg/mL | IC50 against A. flavus (A. flavus): 45 µg/mL | IC50 against C. neoformans (C. neoformans): 8 µg/mL | IC50 against T. albicans (T. albicans): 42 µg/mL | IC50 against C. glabrata (C. glabrata): >100 µg/mL | Activity across the range of fungal pathogens [1]: intermediate activity | IC50 against T. interdigitale (T. interdigitale): 2 µg/mL | IC50 against A. fumigatus (A. fumigatus): 15 µg/mL | IC50 against C. tropicalis (C. tropicalis): 10 µg/mL | IC50 against A. niger (A. niger): 12.5 µg/mL | IC50 against M. fulvum (M. fulvum): 18 µg/mL | IC50 (B. subtilis): 20 µM | IC50 against C. gattii (C. gattii): 38 µg/mL | IC50 (E. coli): > 20 µM

HXL035: Class I plant defensin from Picramnia pentandra (KVCTKPSKFFKGLCGFDRDCTVACKKEGLASGFCQNKGFFNVVCVCRKPC; HXL035 Picramnia pentandra)
IC50 against C. albicans (C. albicans): 18 µg/mL | IC50 against T. rubrum (T. rubrum): 2 µg/mL | IC50 against A. flavus (A. flavus): 25 µg/mL | IC50 against C. neoformans (C. neoformans): 5 µg/mL | IC50 against T. albicans (T. albicans): 18 µg/mL | IC50 against C. glabrata (C. glabrata): 10 µg/mL | Activity across the range of fungal pathogens [1]: most effective | IC50 against T. interdigitale (T. interdigitale): 1 µg/mL | IC50 against A. fumigatus (A. fumigatus): 7.5 µg/mL | IC50 against C. tropicalis (C. tropicalis): 6 µg/mL | IC50 against A. niger (A. niger): 6 µg/mL | IC50 against M. fulvum (M. fulvum): 2 µg/mL | IC50 against C. gattii (C. gattii): 20 µg/mL
